Measured values reported in patent US12570662B2, “Substituted pyrrolo[1,2-b]pyridazines as bifunctional degraders of interleukin-1 receptor-associated kinases” (Nurix Therapeutics, Inc., priority 2021, dated 2026).
Where two headings read alike, the source gives them in different places.

Biological target: T1, IRAK4 (Homo sapiens, UniProt Q9NWZ3)
T1 construct: C-terminal HiBiT-tagged Jurkat cells (polyclonal cell line or clone 8D5); endogenous in cells; host or cells: Jurkat cells (polyclonal cell line or clone 8D5), HiBiT-tagged
T1 sequence (Q9NWZ3 1-460): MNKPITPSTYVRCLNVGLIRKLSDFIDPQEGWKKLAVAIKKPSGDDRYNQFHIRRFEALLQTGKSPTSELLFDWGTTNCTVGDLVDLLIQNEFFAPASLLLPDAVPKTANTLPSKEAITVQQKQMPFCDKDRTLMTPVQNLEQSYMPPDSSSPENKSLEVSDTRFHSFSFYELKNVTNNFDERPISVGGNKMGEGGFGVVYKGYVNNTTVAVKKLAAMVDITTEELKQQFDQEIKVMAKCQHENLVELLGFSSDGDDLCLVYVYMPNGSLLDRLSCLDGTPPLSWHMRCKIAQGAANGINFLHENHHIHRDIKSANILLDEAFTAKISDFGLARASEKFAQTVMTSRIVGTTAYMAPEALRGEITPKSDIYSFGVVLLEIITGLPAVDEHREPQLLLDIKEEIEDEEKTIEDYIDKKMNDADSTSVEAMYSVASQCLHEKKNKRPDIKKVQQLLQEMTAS
Assay: IRAK4 Degradation HiBit Assay
Format: cell-based
Conditions: C-terminal HiBiT-tagged Jurkat cells, 4 hrs incubation; for DC50: % IRAK4 remaining, four-parameter fit (IC50 used as DC50); for Dmax: from fit of % IRAK4 remaining
Description: Compound dilution series (11-point, 3.16-fold dilutions in DMSO, columns 1-11 and 12-22) at 500× the final required concentrations were prepared in Labcyte LDV 384-well plates (cat. no. LP-0200) using a Labcyte Echo 550 Liquid Handler. The 500× solutions ranged from 5 mM to 0.5 μM (final assay concentration range 10 μM to 0.1 nM). Using the Echo, the 500× solutions were stamped into white, 384-well assay plates (Corning, cat. no. 3570) at 60 nL/well. The following assay plate controls were also stamped at 60 nL/well: DMSO in wells E23-P23 (NC, Negative Control, maximum signal), 5 mM solution control compound al in wells A23-D23 and M24-P24 (AC, Active Control, minimum signal/background, 10 μM final assay concentration), control compound al dilution series in wells […] (12-point, 4-fold dilutions). C-terminal HiBiT-tagged Jurkat cells (polyclonal cell line or clone 8D5) were plated at 1×10^6 cells/mL, 30 μL/well (3×10^4 cells/well) in complete RPMI (10% FBS, 1% L-glutamine). Cells were incubated for 4 hrs at 32° C./6% CO2. Compound al has the following structure:
Following incubation, 30 μL of complete Nano-Glo HiBiT Lytic Detection Reagent (Nano-Glo HiBiT Lytic Buffer with 1:50 Nano-Glo HiBiT Lytic Substrate and 1:100 LgBiT Protein; Promega cat. no. N3040) was added. Cells were further incubated for 10 min at room temperature (RT). Luminescence units (LU) were read on an EnVision plate reader (Perkin Elmer, 0.1 sec per well). Percent IRAK4 remaining per sample was calculated as follows: […]
Using Graphpad Prism, % IRAK4 remaining values were plotted as a function of compound concentration. To determine DC50 and Dmax values, resulting curves were fit to the Prism curve-fitting equation “log (inhibitor) vs response-Variable slope (four parameters)” (reported best fit value IC50 used as DC50). Table 1 summarizes the biological data of Compounds of Examples 1-137 and 142-145 obtained from the assays described herein.

DC50 [nM] | Dmax (read-out: Dmax) [%] | Dmax [%] | SMILES
22 | 112 | – | N#Cc1cnn2c(-c3cc(N[C@H]4CCOC4)c(-c4nnc(N5CCN(CC6CCN(c7ccc([C@@H]8CCC(=O)NC8=O)cn7)CC6)CC5)s4)cn3)ccc2c1 (single isomer, unassigned) [Example 130]
20 | 98 | – | CC(C)Nc1cc(-c2ccc3cc(C#N)cnn23)ncc1-c1nnc(N2CCN(C(=O)[C@@H]3CCN(c4ccc([C@H]5CCC(=O)NC5=O)cn4)C3)CC2)s1 (racemic) [Example 20, 7-[5-(5-{4-[(3RS)-1-{5-[(3RS&)-2,6-dioxopiperidin-3-yl]pyridin-2-yl}pyrrolidine-3-carbonyl]piperazin-1-yl}-1,3,4-thiadiazol-2-yl)-4-[(propan-2-yl)amino]pyridin-2-yl]pyrrolo[1,2-b]pyridazine-3-carbonitrile]
12 | 114 | – | CNc1cc(-c2ccc3cc(C#N)cnn23)ncc1-c1nnc([C@H]2CC[C@H](CN3CCN(c4ccc([C@@H]5CCC(=O)NC5=O)cn4)CC3)CC2)s1 (racemic) [Example 44, 7-[4-(methylamino)-5-{5-[(1r,4r)-4-[(4-{5-[(3RS)-2,6-dioxopiperidin-3-yl]pyridin-2-yl}piperazin-1-yl)methyl]cyclohexyl]-1,3,4-thiadiazol-2-yl}pyridin-2-yl]pyrrolo[1,2-b]pyridazine-3-carbonitrile]
20 | – | 95 | N#Cc1cnn2c(-c3cc(NC4CCOCC4)c(-c4nnc(N5CCN(C[C@H]6[C@H]7CN(c8ccc(C9CCC(=O)NC9=O)cn8)C[C@@H]67)CC5)s4)cn3)ccc2c1 (mixture of isomers) [Example 100, 7-{5-[5-(4-{[(1RS&,5SR&,6RS&)-3-{5-[(3RS)-2,6-dioxopiperidin-3-yl]pyridin-2-yl}-3-azabicyclo[3.1.0]hexan-6-yl]methyl}piperazin-1-yl)-1,3,4-thiadiazol-2-yl]-4-[(oxan-4-yl)amino]pyridin-2-yl}pyrrolo[1,2-b]pyridazine-3-carbonitrile]
60 | 91 | – | N#Cc1cnn2c(-c3cc(NC4CCOCC4)c(-c4nnc(C56CCC(C(=O)N7CCC(Oc8ccc(C9CCC(=O)NC9=O)cn8)CC7)(CC5)CC6)s4)cn3)ccc2c1 (racemic) [Example 21, rac-7-[5-(5-{4-[4-({5-[(3R)-2,6-dioxopiperidin-3-yl]pyridin-2-yl}oxy)piperidine-1-carbonyl]bicyclo[2.2.2]octan-1-yl}-1,3,4-thiadiazol-2-yl)-4-[(oxan-4-yl)amino]pyridin-2-yl]pyrrolo[1,2-b]pyridazine-3-carbonitrile]
16 | 115 | – | CNc1cc(-c2ccc3cc(C#N)cnn23)ncc1-c1nnc(N2CCN(CC3CCN(c4ccc([C@@H]5CCC(=O)NC5=O)cn4)CC3)CC2)s1 (single isomer, unassigned) [Example 42]
239 | 105 | – | N#Cc1cnn2c(-c3cc(NC4CCC4)c(-c4nnc(N5CCN(CC6CCN(c7ccc(C8CCC(=O)NC8=O)cn7)CC6)CC5)s4)cn3)ccc2c1 (racemic) [Example 113, rac-7-[4-(cyclobutylamino)-5-(5-{4-[(1-{5-[(3R)-2,6-dioxopiperidin-3-yl]pyridin-2-yl}piperidin-4-yl)methyl]piperazin-1-yl}-1,3,4-thiadiazol-2-yl)pyridin-2-yl]pyrrolo[1,2-b]pyridazine-3-carbonitrile]
32 | 77 | – | N#Cc1cnn2c(-c3cc(NC4CCOCC4)c(-c4nnc(N5CCN(CC6CCN(c7cncc(C8CCC(=O)NC8=O)c7)CC6)CC5)s4)cn3)ccc2c1 (racemic) [Example 11, rac-7-[5-(5-{4-[(1-{5-[(3R)-2,6-dioxopiperidin-3-yl]pyridin-3-yl}piperidin-4-yl)methyl]piperazin-1-yl}-1,3,4-thiadiazol-2-yl)-4-[(oxan-4-yl)amino]pyridin-2-yl]pyrrolo[1,2-b]pyridazine-3-carbonitrile]
7 | – | 55 | N#Cc1cnn2c(-c3cc(NC4CCOCC4)c(-c4nnc(N5CC6CCC(C5)N6CC5[C@H]6CN(c7ccc([C@H]8CCC(=O)NC8=O)cn7)C[C@@H]56)s4)cn3)ccc2c1 (mixture of isomers) [Example 101, 7-{5-[5-(8-{[(1RS&,5SR&,6RS&)-3-{5-[(3RS)-2,6-dioxopiperidin-3-yl]pyridin-2-yl}-3-azabicyclo[3.1.0]hexan-6-yl]methyl}-3,8-diazabicyclo[3.2.1]octan-3-yl)-1,3,4-thiadiazol-2-yl]-4-[(oxan-4-yl)amino]pyridin-2-yl}pyrrolo[1,2-b]pyridazine-3-carbonitrile]
166 | 87 | – | N#Cc1cnn2c(-c3cc(N[C@H]4CCOC4)c(-c4nnc(N5CCN(CC6CCN(c7ccc([C@H]8CCC(=O)NC8=O)cn7)CC6)CC5)s4)cn3)ccc2c1 (single isomer, unassigned) [Example 144]
9 | 113 | – | N#Cc1cnn2c(-c3cc(N[C@@H]4CCOC4)c(-c4nnc(N5CCN(CC6CCN(c7ccc([C@@H]8CCC(=O)NC8=O)cn7)CC6)CC5)s4)cn3)ccc2c1 (single isomer, unassigned) [Example 127]

SMILES | DC50 [nM] | Dmax (read-out: Dmax) [%] | Dmax [%]
N#Cc1cnn2c(-c3cc(NC4CCOCC4)c(-c4nnc(N5CC6CCC(C5)N6CC5CCN(c6ccc(N7CCC(=O)NC7=O)cn6)CC5)s4)cn3)ccc2c1 [Example 86, 7-(5-{5-[8-({1-[5-(2,4-dioxo-1,3-diazinan-1-yl)pyridin-2-yl]piperidin-4-yl}methyl)-3,8-diazabicyclo[3.2.1]octan-3-yl]-1,3,4-thiadiazol-2-yl}-4-[(oxan-4-yl)amino]pyridin-2-yl)pyrrolo[1,2-b]pyridazine-3-carbonitrile] | 12 | 111 | –
N#CCNc1cc(-c2ccc3cc(C#N)cnn23)ncc1-c1nnc(N2CC3CCC(C2)N3CC2CCN(c3ccc([C@@H]4CCC(=O)NC4=O)cn3)CC2)s1 (single isomer, unassigned) [Example 133] | 13 | 110 | –
N#Cc1cnn2c(-c3cc(NC4CCOCC4)c(-c4nnc(N5CC6CCC(C5)N6C(=O)C5CCN(c6ccc([C@@H]7CCC(=O)NC7=O)cn6)CC5)s4)cn3)ccc2c1 (racemic) [Example 29, rac-7-(5-{5-[8-(1-{5-[(3R)-2,6-dioxopiperidin-3-yl]pyridin-2-yl}piperidine-4-carbonyl)-3,8-diazabicyclo[3.2.1]octan-3-yl]-1,3,4-thiadiazol-2-yl}-4-[(oxan-4-yl)amino]pyridin-2-yl)pyrrolo[1,2-b]pyridazine-3-carbonitrile] | 9 | 79 | –
CC(C)Nc1cc(-c2ccc3cc(C#N)cnn23)ncc1-c1nnc(N2CC3CCC(C2)N3CC2CCN(c3ccc([C@@H]4CCC(=O)NC4=O)cc3)CC2)s1 (single isomer, unassigned) [Example 121] | 73 | 88 | –
N#Cc1cnn2c(-c3cc(NC4CC4)c(-c4nnc(N5CC6CCC(C5)N6CC5CCN(c6ccc([C@@H]7CCC(=O)NC7=O)cc6)CC5)s4)cn3)ccc2c1 (single isomer, unassigned) [Example 123] | 80 | 96 | –
N#Cc1cnn2c(-c3cc(NC4CCOCC4)c(-c4nnc(N5CC6CCC(C5)N6CC5CCN(c6ccc([C@@H]7CCC(=O)NC7=O)cc6)CC5)s4)cn3)ccc2c1 (single isomer, unassigned) [Example 109] | 52 | 94 | –
